# Results as given in patent US4465676A, “16α Halogen substituted 3,17β-dihydroxy steroidal estrogens” (priority 1980, dated 1984).
# Assays:
# [1] = Tissue radioactivity 6 hours after injection into castrated female rats with and without DES; type: in vivo, Sprague-Dawley rats
# Experimental: (§1) To deterine whether 16α-[^125 I]iodoestradiol would be recognized by estrogen-responsive tissues, it was injected into castrated female rats with and without diethylstilbestrol (DES); after 6 hours the concentration of radioactivity in the uterus was compared to that in several other tissues.
# (§2) Female Sprague-Dawley rats (200 to 250 g) were castrated 48 hours before subcutaneous injection of ^125 I-labeled estradiol (1×10^6 count/min) dissolved in 10 μl of ethanol and 0.2 ml of saline. Twenty minutes before the administration of the iodinated estradiol, one group of rats (N=6) were injected with 5 μg of DES dissolved first in 50 μl of ethanol and then in 0.5 ml of saline. Another group of castrated rats (N=6) were injected with 0.5 ml of 10 percent ethanol in saline before receiving the radioactive steroid. The rats were killed 6 hours later and small pieces of the tissues were weighed and counted. All values are means ± standard deviations. To determine ether extractable radioactivity, the uterus, liver, and thyroid were homogenized in methanol and filtered. The filtrate was evaporated and the resulting residue was partitioned between ether and 0.1N NaHCO3. The ethereal solution was evaporated and counted and the results are tabulated below in Table I.
# (§3) Several micrograms of 16α-iodoestradiol were added to the ether extract of the uterus and the mixture was submitted to high-pressure liquid chromatography. High pressure liquid chromatography was performed on a 250 by 4.6 mm Lichrosorb Diol column (merck) with methylene chloride at a flow rate of 1 ml/min. In this system 16α-iodoestradiol is eluted in 12 minutes and 16β-bromoestradiol in 8 minutes. […] The radioactivity in the thyroid gland, approximately 2000 count/min, is probably due to the uptake of free iodide arising from the metabolism of ^125 I-labeled estradiol in vivo and is equivalent to only 0.2 percent of the injected dose.
# [2] = test system: Rat Uterine Receptor; assay: as above; type: in vivo, Sprague-Dawley rats
# Experimental: as §1, §2, §3
# [3] = target: T1, calf uterine estrogen receptor (Bos taurus, UniProt P49884); assay: Saturation and Scatchard analysis of the estrogen receptor from calf uterus; type: binding; settings: calf uterine cytosol
# T1 construct: Fresh calf uteri obtained from a slaughterhouse; from tissue; host or cells: calf uterus, 150,000 x g cytosol from lyophilized powder
# T1 sequence (P49884 1-596): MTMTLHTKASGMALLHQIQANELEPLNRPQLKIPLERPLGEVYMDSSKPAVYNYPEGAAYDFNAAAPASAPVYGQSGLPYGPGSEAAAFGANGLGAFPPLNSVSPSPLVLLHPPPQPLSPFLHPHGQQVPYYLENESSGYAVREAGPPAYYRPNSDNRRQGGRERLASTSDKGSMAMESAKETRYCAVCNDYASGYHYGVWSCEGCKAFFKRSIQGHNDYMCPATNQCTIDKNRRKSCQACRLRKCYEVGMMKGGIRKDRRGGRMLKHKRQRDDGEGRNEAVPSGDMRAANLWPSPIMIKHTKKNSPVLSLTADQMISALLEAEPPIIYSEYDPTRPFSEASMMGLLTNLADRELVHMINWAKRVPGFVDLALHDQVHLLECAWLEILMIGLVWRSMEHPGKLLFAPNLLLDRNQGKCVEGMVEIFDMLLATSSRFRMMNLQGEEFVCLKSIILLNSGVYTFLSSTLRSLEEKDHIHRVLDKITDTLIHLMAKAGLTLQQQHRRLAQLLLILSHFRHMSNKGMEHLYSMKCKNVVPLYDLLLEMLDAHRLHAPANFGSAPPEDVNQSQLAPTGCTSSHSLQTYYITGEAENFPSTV
# Experimental: Fresh calf uteri obtained from a slaughterhouse were brought to the laboratory on ice, immediately trimmed of fat, and cut into small pieces; the pieces were frozen in liquid nitrogen and pulverized. The pulverized frozen tissue was lyophilized, and the desiccated powder was stored under vacuum in sealed vials at -80° C. The uterine powders were usually used within 1 month of pulverization. When needed, the powders were suspended in 0.1M Tris-HCl, pH 7.4/2.5 mM EDTA/5 mM dithiotreithol (TED buffer) at 2.5 mg/ml and homogenized at 0° C. in a Polytron homogenizer with two or three pulses at 15 seconds each. The homogenate was then centrifuged at 150,000×g for 60 minutes and the resulting supernatant (cytosol), containing approximately 1 mg of protein per ml, was used for binding studies on the estrogen receptor.
# After the solvent was removed under a stream of N2, 250 μl of cytosol was added and the samples were incubated at 0°-2° C. overnight. The following morning, 250 μl of a 0.5% suspension of dextran-coated charcoal in TED buffer was added to the tubes which then were mixed and centrifuged at 5000×g for 10 minutes. The supernatant was assayed to determine bound radioactivity.
# A saturation analysis of the estrogen receptor from calf uterus was conducted. […] Nonspecific binding, specific binding and total binding were determined in parallel incubations containing 0.7 μM DES.
# A Scatchard analysis of the estrogen receptor from calf uterus was also conducted.
# [4] = target: T2, estrogen receptors (rat uterine cytosol) (Rattus norvegicus, UniProt P06211); assay: Kinetic experiments and Scatchard analyses in rat uterine cytosol
# T2 sequence (P06211 1-600): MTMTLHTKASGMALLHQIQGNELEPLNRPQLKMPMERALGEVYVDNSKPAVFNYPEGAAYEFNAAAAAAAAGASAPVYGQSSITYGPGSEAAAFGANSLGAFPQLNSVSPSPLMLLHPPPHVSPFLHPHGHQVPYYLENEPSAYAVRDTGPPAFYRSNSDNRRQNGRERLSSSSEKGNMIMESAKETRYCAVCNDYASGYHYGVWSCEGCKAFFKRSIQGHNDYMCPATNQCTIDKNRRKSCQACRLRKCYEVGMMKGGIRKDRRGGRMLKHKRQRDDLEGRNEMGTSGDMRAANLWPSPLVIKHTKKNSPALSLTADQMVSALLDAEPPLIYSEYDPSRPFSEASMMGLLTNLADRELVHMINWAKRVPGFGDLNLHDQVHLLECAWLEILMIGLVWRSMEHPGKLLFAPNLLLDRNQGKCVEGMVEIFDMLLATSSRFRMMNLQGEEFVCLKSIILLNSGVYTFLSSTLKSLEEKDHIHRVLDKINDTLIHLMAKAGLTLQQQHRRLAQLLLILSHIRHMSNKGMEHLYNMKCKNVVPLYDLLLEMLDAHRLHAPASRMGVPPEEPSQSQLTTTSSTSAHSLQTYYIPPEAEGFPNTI
structure (smiles),measurement,setting,value
"C[C@]12CC[C@@H]3c4ccc(O)cc4CC[C@H]3[C@@H]1C[C@@H]([125I])[C@@H]2O [^125 I-E2, 16α-[^125 I]iodoestra-1,3,5(10)-triene-3,17β-diol]",Ether-extractable radioactivity,[1]; Liver,10-15%
same,Ether-extractable radioactivity,[1]; Thyroid,0-1%
same,Ether-extractable radioactivity,[1]; Uterus,> 90%
same,nature of the radioactive material in the uterus,[2]; HPLC of ether extract of uterus with 16α-iodoestradiol carrier,unmetabolized
same,"Radioactivity, With DES","[2]; Heart, 5 μg DES, 6 hours",26 ± 7 count/min per 100 mg of tissue
same,"Radioactivity, Without DES","[2]; Heart, 6 hours",23 ± 5 count/min per 100 mg of tissue
same,"Radioactivity, With DES","[2]; Kidney, 5 μg DES, 6 hours",75 ± 20 count/min per 100 mg of tissue
same,"Radioactivity, Without DES","[2]; Kidney, 6 hours",73 ± 33 count/min per 100 mg of tissue
same,"Radioactivity, With DES","[2]; Liver, 5 μg DES, 6 hours",425 ± 105 count/min per 100 mg of tissue
same,"Radioactivity, Without DES","[2]; Liver, 6 hours",446 ± 184 count/min per 100 mg of tissue
same,"Radioactivity, With DES","[2]; Lung, 5 μg DES, 6 hours",56 ± 11 count/min per 100 mg of tissue
same,"Radioactivity, Without DES","[2]; Lung, 6 hours",47 ± 23 count/min per 100 mg of tissue
same,"Radioactivity, With DES","[2]; Muscle, 5 μg DES, 6 hours",18 ± 12 count/min per 100 mg of tissue
same,"Radioactivity, Without DES","[2]; Muscle, 6 hours",33 ± 23 count/min per 100 mg of tissue
same,"Radioactivity, With DES","[2]; Serum, 5 μg DES, 6 hours",68 ± 6 count/min per 100 mg of tissue
same,"Radioactivity, Without DES","[2]; Serum, 6 hours",69 ± 11 count/min per 100 mg of tissue
same,"Radioactivity, With DES","[2]; Thyroid, entire organ, 5 μg DES, 6 hours",2287 ± 805 count/min
same,"Radioactivity, Without DES","[2]; Thyroid, entire organ, 6 hours",1839 ± 802 count/min
same,"Radioactivity, With DES","[2]; Uterus, 5 μg DES 20 min before, 6 hours",73 ± 8 count/min per 100 mg of tissue
same,"Radioactivity, Without DES","[2]; Uterus, castrated rats, 6 hours after s.c. injection",313 ± 150 count/min per 100 mg of tissue
same,radioactivity in the thyroid gland as share of injected dose,[2]; thyroid gland,0.2% of the injected dose
same,radioactivity in the thyroid gland,"[2]; thyroid gland, probably free iodide",approximately 2000 count/min
same,radioactivity bound (binding capacities),[3],"122,000 cpm"
same,Kd,[4],0.27 nM
